Data from patent US11628174B1, “Pharmaceutical compositions and methods for treating insomnia” (priority 2022, dated 2023).

Legend:
[1] = tested on: anti-IgE-induced release of prostaglandin D2 (PGD2) and leukotrienes C4/D4; release of cytokines; details: background statement, cited from earlier work
[2] = Clinical case reports: tolerability and side effects in patients with insomnia
Method: A patient had insomnia for more than 2 months before they were provided with medications.
A patient had insomnia for more than 3 months. […] After that, they were treated with the combination of ebastine (10 mg) and alprazolam (0.4 mg) daily.

[3] = tested on: insomnia; assay: Clinical case reports: treatment of patients with insomnia; assay type: in vivo, human
[4] = tested on: allergic rhinitis; assay: Clinical case report: allergic rhinitis in a patient with insomnia; assay type: in vivo, human; details: Example 1; ebastine 20 mg once a day, about 3 months
[5] = tested on: REM sleep; details: background statement; cited from earlier work

In the case of `CC(C)(C(=O)O)c1ccc(C(=O)CCCN2CCC(OC(c3ccccc3)c3ccccc3)CC2)cc1` [carebastine], the “release of PGD2” value ([1]; metabolite of ebastine) is listed as “inhibits”.

For `CN1CCN(C(=O)O[C@H]2c3nccnc3C(=O)N2c2ccc(Cl)cn2)CC1` [eszopiclone], the “tolerability (side effects of headache and dizziness)” value ([2]; Example 3, eszopiclone 1 mg daily for 2 weeks) was “could not tolerate the side effects of headache and dizziness” and the “tolerability (adverse reaction of headache)” value ([2]; Example 4, person, eszopiclone 1 mg daily for one week) was “could not tolerate its adverse reaction of headache”.

In the case of `Cc1ccc(-c2nc3ccc(C)cn3c2CC(=O)N(C)C)cc1` [zolpidem], the “tolerability (side effects of headache and dizziness)” value ([2]; Example 3, person, zolpidem 10 mg daily for 1 month) is reported as “could not tolerate the side effects of headache and dizziness”.

In the case of `CC(C)(C)c1ccc(C(=O)CCCN2CCC(OC(c3ccccc3)c3ccccc3)CC2)cc1` [ebastine, 4-diphenylmethoxy-1-[3-(4-tert-butylbenzoyl)-propyl] piperidine], the “insomnia (difficulty of falling to asleep) improvement” value ([3]; Example 1, person, ebastine 20 mg once a day, about 3 months) is given as “no improvement”, the allergic rhinitis improvement [4] is given as “only improved marginally” and the “anti-IgE-induced release of prostaglandin D2 (PGD2) and leukotrienes C4/D4 (LTC4/D4)” value [1] is given as “significantly inhibits”. For the same compound, the “release of cytokines, including GM-CSF, tumour necrosis factor-a and interleukin-8” value [1] was “inhibited”.

For `Cc1nnc2n1-c1ccc(Cl)cc1C(c1ccccc1)=NC2` [alprazolam, 8-chloro-1-methyl-6-phenyl-4H-s-triazolo[4,3-a] [1,4]benzodiazepine], the “chronic insomnia along with depression, improvement” value ([3]; Example 2, person, alprazolam 0.8 mg twice daily, 2 months) is listed as “no improvement”, the REM latency [5] is listed as “increases” and the “length of REM periods and frequency of REM burst activities” value [5] is listed as “significantly decreases”.
